Experimental data reported in US20130158075A1, “HETEROCYCLIC COMPOUNDS AS DGAT1 INHIBITORS” (PIRAMAL ENTERPRISES LIMITED, priority 2010, published 2013).

These compounds were tested against T1, hDGAT1 (Homo sapiens, UniProt O75907) (assay: In-vitro DGAT1 assay with hDGAT1 microsomes from Sf9 cells (14C oleoyl CoA, scintillation counting)). Settings: at 1 μM.
T1 construct: made in house; host or cells: Sf9 insect cells (baculovirus); microsomal fraction
T1 sequence (O75907 1-488): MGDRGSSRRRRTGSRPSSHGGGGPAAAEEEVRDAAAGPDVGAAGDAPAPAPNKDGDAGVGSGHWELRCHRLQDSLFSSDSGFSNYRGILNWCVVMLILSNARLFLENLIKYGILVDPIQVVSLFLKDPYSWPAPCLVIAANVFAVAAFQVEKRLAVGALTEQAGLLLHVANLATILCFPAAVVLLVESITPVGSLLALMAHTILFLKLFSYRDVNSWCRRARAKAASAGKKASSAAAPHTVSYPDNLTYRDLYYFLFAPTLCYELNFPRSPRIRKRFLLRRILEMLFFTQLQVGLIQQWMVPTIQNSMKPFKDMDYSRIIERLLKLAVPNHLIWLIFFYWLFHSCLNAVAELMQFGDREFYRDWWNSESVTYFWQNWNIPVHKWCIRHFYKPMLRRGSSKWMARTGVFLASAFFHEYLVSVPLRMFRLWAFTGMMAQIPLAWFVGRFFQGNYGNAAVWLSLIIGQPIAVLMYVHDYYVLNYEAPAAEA
Type: biochemical
In short: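 Microsomes from Sf9 cells infected with hDGAT1 baculovirus (MOI 5, harvested ~66-72 h) were incubated with [14C]oleoyl-CoA and 1,2-dioleoyl-sn-glycerol at 37 °C for 10 min, in duplicate. After alkaline ethanol stop, triglycerides were heptane-extracted and counted by liquid scintillation; percent inhibition was plotted against compound concentration (nM).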

With `O=C(O)CC1CCC(c2ncc(-c3ccc(NC(=O)c4nc(-c5ccccc5)oc4C(F)(F)F)cc3)s2)CC1` (stereo not shown) [Example 370, 2-(4-(5-(4-(2-Phenyl-5-(trifluoromethyl)oxazole-4-carboxamido)phenyl)thiazol-2-VI)cyclohexyl)acetic acid] the “Percentage inhibition of hDGAT1” value was “++ (>50 % Inhibition)”.
With `CC(=O)NC(=O)CC1CCC(c2ncc(-c3ccc(NC(=O)c4c(F)cccc4F)cc3)s2)CC1` (stereo not shown) [Example 403, N-(4-(2-(4-(2-Acetamido-2-oxoethyl)cyclohexyl)thiazol-5-yl)phenyl)-2,6-difluoro benzamide] the “Percentage inhibition of hDGAT1” value was “+ (20-50% Inhibition)”.
In the case of `CC(C)(O)CC1CCC(c2ncc(-c3ccc(NC(=O)Nc4cc(F)c(F)cc4F)cc3)s2)CC1` (stereo not shown) [Example 409], the “Percentage inhibition of hDGAT1” value is reported as “++ (>50 % Inhibition)”.

Same assay, conditions: read-out: Percentage inhibition of hDGAT1

`Cc1oc(-c2ccccc2)nc1C(=O)Nc1ccc(-c2cnc(C3CCC(CC(=O)O)CC3)s2)cc1` (stereo not shown) [Example 372, 2-(4-(5-(4-(5-Methyl-2-phenyloxazole-4-carboxamido)phenyl)thiazol-2-yl)cyclohexyl)acetic acid] and `O=C(O)CC1CCC(c2ncc(-c3ccc(NC(=S)Nc4ccccc4F)cc3)s2)CC1` (stereo not shown) [Example 374, 2-(4-(5-(4-(3-(2-Fluorophenyl)thioureido)phenyl)thiazol-2-yl)cyclohexyl)acetic acid] cannot be ordered by inhibition at 1 µM: greater than 50% for the first, greater than 50% for the second.

`Cc1nnc(CC2CCC(c3ncc(-c4ccc(NC(=O)Nc5ccc(F)cc5F)cc4)s3)CC2)o1` (stereo not shown) [Example 379, 1-(2,4-Difluorophenyl)-3-(4-(2-(4-((5-methyl-1,3,4-oxadiazol-2-yl)methyl)cyclohexyl)thiazol-5-yl)phenyl)urea] and `Cc1noc(CC2CCC(c3ncc(-c4ccc(NC(=O)Nc5ccc(F)cc5F)cc4)s3)CC2)n1` (stereo not shown) [Example 394, 1-(2,4-Difluorophenyl)-3-(4-(2-(4-((3-methyl-1,2,4-oxadiazol-5-yl)methyl)cyclohexyl)thiazol-5-yl)phenyl)urea] cannot be ordered by inhibition at 1 µM: greater than 50% for the first, greater than 50% for the second.

First: Cc1nnc(CC2CCC(c3ncc(-c4ccc(NC(=O)Nc5ccccc5Cl)cc4)s3)CC2)o1 (stereo not shown) [Example 380, 1-(2-Chlorophenyl)-3-(4-(2-(4-((5-methyl-1,3,4-oxadiazol-2-yl)methyl)cyclohexyl)thiazol-5-yl)phenyl)urea]
Second: Cc1noc(CC2CCC(c3ncc(-c4ccc(NC(=O)Nc5ccccc5Cl)cc4)s3)CC2)n1 (stereo not shown) [Example 390, 1-(2-Chlorophenyl)-3-(4-(2-(4-((3-methyl-1,2,4-oxadiazol-5-yl)methyl)cyclohexyl)thiazol-5-yl)phenyl)urea]
The inhibition at 1 µM of the first is lower: 20 to 50% for the first, greater than 50% for the second.

`Cc1nnc(CC2CCC(c3ncc(-c4ccc(NC(=O)Nc5cc(F)cc(F)c5)cc4)s3)CC2)o1` (stereo not shown) [Example 381, 1-(3,5-Difluorophenyl)-3-(4-(2-(4-((5-methyl-1,3,4-oxadiazol-2-yl)methyl)cyclohexyl)thiazol-5-yl)phenyl)urea] and `Cc1noc(CC2CCC(c3ncc(-c4ccc(NC(=O)Nc5cc(F)cc(F)c5)cc4)s3)CC2)n1` (stereo not shown) [Example 392, 1-(3,5-Difluorophenyl)-3-(4-(2-(4-((3-methyl-1,2,4-oxadiazol-5-yl)methyl)cyclohexyl)thiazol-5-yl)phenyl)urea] cannot be ordered by inhibition at 1 µM: greater than 50% for the first, greater than 50% for the second.

`Cc1nnc(CC2CCC(c3ncc(-c4ccc(NC(=O)Nc5cc(F)c(F)cc5F)cc4)s3)CC2)o1` (stereo not shown) [Example 382, 1-(4-(2-(4-((5-Methyl-1,3,4-oxadiazol-2-yl)methyl)cyclohexyl)thiazol-5-yl)phenyl)-3-(2,4,5-trifluorophenyl)urea] and `Cc1nnc(CC2CCC(c3ncc(-c4ccc(NC(=O)Nc5c(F)cc(F)cc5F)cc4)s3)CC2)o1` (stereo not shown) [Example 383, 1-(4-(2-(4-((5-Methyl-1,3,4-oxadiazol-2-yl)methyl)cyclohexyl)thiazol-5-yl)phenyl)-3-(2,4,6-trifluorophenyl)urea] cannot be ordered by inhibition at 1 µM: greater than 50% for the first, greater than 50% for the second.

`Cc1nnc(CC2CCC(c3ncc(-c4ccc(NC(=O)c5c(F)cccc5F)cc4)s3)CC2)o1` (stereo not shown) [Example 385, 2,6-Difluoro-N-(4-(2-(4-((5-methyl-1,3,4-oxadiazol-2-yl)methyl)cyclohexyl)thiazol-5-yl)phenyl)benzamide] and `Cc1noc(CC2CCC(c3ncc(-c4ccc(NC(=O)c5c(F)cccc5F)cc4)s3)CC2)n1` (stereo not shown) [Example 396, 2,6-Difluoro-N-(4-(2-(4-((3-methyl-1,2,4-oxadiazol-5-yl)methyl)cyclohexyl)thiazol-5-yl)phenyl)benzamide] fall in the same range of inhibition at 1 µM: 20 to 50% for the first, 20 to 50% for the second.

`Cc1noc(CC2CCC(c3ncc(-c4ccc(NC(=O)Nc5ccccc5F)cc4)s3)CC2)n1` (stereo not shown) [Example 391, 1-(2-Fluorophenyl)-3-(4-(2-(4-((3-methyl-1,2,4-oxadiazol-5-yl)methyl)cyclohexyl)thiazol-5-yl)phenyl)urea] and `Cc1noc(CC2CCC(c3ncc(-c4ccc(NC(=O)Nc5cc(F)c(F)cc5F)cc4)s3)CC2)n1` (stereo not shown) [Example 393, 1-(4-(2-(4-((3-Methyl-1,2,4-oxadiazol-5-yl)methyl)cyclohexyl)thiazol-5-yl)phenyl)-3-(2,4,5-trifluorophenyl)urea] cannot be ordered by inhibition at 1 µM: greater than 50% for the first, greater than 50% for the second.

`CC(=O)NC(=O)CC1CCC(c2ncc(-c3ccc(NC(=O)Nc4ccccc4Cl)cc3)s2)CC1` (stereo not shown) [Example 400, N-Acetyl-2-(4-(5-(4-(3-(2-chlorophenyl)ureido)phenyl)thiazol-2-yl)cyclohexyl)acetamide] and `CC(=O)NC(=O)CC1CCC(c2ncc(-c3ccc(NC(=O)Nc4ccc(F)cc4F)cc3)s2)CC1` (stereo not shown) [Example 401, N-Acetyl-2-(4-(5-(4-(3-(2,4-difluorophenyl)ureido)phenyl)thiazol-2-yl)cyclohexyl)acetamide] cannot be ordered by inhibition at 1 µM: greater than 50% for the first, greater than 50% for the second.

`CC(=O)NC(=O)CC1CCC(c2ncc(-c3ccc(NC(=O)Nc4cc(F)c(F)cc4F)cc3)s2)CC1` (stereo not shown) [Example 402, N-Acetyl-2-(4-(5-(4-(3-(2,4,5-trifluorophenyl)ureido)phenyl)thiazol-2-yl)cyclohexyl)acetamide] and `CC(C)(O)CC1CCC(c2ncc(-c3ccc(NC(=O)Nc4ccc(F)cc4F)cc3)s2)CC1` (stereo not shown) [Example 407, 1-(2,4-Difluorophenyl)-3-(4-(2-(4-(2-hydroxy-2-methylpropyl)cyclohexyl)thiazol-5-yl)phenyl)urea] cannot be ordered by inhibition at 1 µM: greater than 50% for the first, greater than 50% for the second.

`CC(C)(O)C1CCC(c2ncc(-c3ccc(NC(=O)Nc4ccccc4Cl)cc3)s2)CC1` (stereo not shown) [Example 404, 1-(2-Chlorophenyl)-3-(4-(2-(4-(2-hydroxypropan-2-yl)cyclohexyl)thiazol-5-yl)phenyl)urea] and `CC(C)(O)C1CCC(c2ncc(-c3ccc(NC(=O)Nc4ccc(F)cc4F)cc3)s2)CC1` (stereo not shown) [Example 406, 1-(2,4-Difluorophenyl)-3-(4-(2-(4-(2-hydroxypropan-2-yl)cyclohexyl)thiazol-5-yl)phenyl)urea] cannot be ordered by inhibition at 1 µM: greater than 50% for the first, greater than 50% for the second.

`CC(C)(O)C1CCC(c2ncc(-c3ccc(NC(=O)Nc4cc(F)cc(F)c4)cc3)s2)CC1` (stereo not shown) [Example 405, 1-(3,5-Difluorophenyl)-3-(4-(2-(4-(2-hydroxypropan-2-yl)cyclohexyl)thiazol-5-yl)phenyl)urea] and `CC(C)(O)CC1CCC(c2ncc(-c3ccc(NC(=O)Nc4cc(F)cc(F)c4)cc3)s2)CC1` (stereo not shown) [Example 408, 1-(3,5-Difluorophenyl)-3-(4-(2-(4-(2-hydroxy-2-methylpropyl)cyclohexyl)thiazol-5-yl)phenyl)urea] cannot be ordered by inhibition at 1 µM: greater than 50% for the first, greater than 50% for the second.
